Measurements published in the kinase profiling compilation of Christmann-Franck et al. (2016).

Experiments:
Experiment in all cases: KINOMEscan competition binding
Details in all cases: compound 10.0 µM
[1] = target: CDK13 (human) (UniProt Q14004)
[2] = target: CDK4 CCND3 (human) (UniProt P11802+P30281)
[3] = target: CDKL3 (human) (UniProt Q8IVW4)
[4] = target: CRK2 (P.falciparum) (UniProt P61075)
[5] = target: CSNK1A1 (human) (UniProt P48729)
[6] = target: DDR1 (human) (UniProt Q08345)
[7] = target: DSTYK (human) (UniProt Q6XUX3)
[8] = target: DYRK2 (human) (UniProt Q92630)
[9] = target: EGFR (human) (UniProt P00533)
[10] = system: EGFR (human), P00533 [746-750 del]
[11] = system: EGFR (human), P00533 [G719S]
[12] = system: EGFR (human), P00533 [L861Q]
[13] = system: EGFR (human), P00533 [P753S; 747-752 del]
[14] = target: GRK1 (human) (UniProt Q15835)
[15] = target: GRK7 (human) (UniProt Q8WTQ7)
[16] = target: HIPK3 (human) (UniProt Q9H422)
[17] = system: KIT (human), P10721 [V559D/T670I]
[18] = target: MAK (human) (UniProt P20794)
[19] = target: MAP2K7 (human) (UniProt O14733)
[20] = target: MAP3K1 (human) (UniProt Q13233)
[21] = target: MAP3K15 (human) (UniProt Q6ZN16)
Sequence of MAP3K15 (human) (Q6ZN16 whole entry, looked up): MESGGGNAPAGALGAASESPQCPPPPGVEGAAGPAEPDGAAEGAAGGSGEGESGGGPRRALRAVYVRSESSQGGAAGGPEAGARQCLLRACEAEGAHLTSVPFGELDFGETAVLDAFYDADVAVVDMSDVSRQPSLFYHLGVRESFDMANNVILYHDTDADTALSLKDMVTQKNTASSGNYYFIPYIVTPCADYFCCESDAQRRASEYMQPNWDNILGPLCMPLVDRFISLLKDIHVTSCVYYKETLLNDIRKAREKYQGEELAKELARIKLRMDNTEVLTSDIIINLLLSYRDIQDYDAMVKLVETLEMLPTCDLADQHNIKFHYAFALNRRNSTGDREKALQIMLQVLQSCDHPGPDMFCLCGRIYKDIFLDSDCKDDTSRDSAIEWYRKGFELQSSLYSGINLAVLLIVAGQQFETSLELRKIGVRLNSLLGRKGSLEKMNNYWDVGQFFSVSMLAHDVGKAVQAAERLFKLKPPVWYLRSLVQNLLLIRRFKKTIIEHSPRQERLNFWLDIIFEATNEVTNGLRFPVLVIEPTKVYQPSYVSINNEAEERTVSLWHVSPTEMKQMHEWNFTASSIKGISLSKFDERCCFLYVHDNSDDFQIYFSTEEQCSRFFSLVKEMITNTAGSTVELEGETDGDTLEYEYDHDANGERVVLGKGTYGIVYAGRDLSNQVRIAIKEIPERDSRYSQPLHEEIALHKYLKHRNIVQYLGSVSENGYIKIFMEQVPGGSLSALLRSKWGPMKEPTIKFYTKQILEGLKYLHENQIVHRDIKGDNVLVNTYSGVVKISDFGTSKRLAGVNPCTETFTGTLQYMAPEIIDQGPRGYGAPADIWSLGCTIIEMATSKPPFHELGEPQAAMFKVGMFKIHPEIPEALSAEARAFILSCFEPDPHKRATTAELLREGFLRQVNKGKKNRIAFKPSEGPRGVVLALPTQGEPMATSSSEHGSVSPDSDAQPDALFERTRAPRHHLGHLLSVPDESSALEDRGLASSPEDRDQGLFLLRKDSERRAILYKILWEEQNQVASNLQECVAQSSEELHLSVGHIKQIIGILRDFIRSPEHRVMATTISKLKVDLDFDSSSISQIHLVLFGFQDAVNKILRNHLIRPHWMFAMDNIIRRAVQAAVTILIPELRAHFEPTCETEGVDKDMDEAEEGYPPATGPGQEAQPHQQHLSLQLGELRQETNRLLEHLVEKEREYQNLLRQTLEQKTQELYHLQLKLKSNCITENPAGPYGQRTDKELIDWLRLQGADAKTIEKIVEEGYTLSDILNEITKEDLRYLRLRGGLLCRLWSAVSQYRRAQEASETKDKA

[22] = target: MAP3K2 (human) (UniProt Q9Y2U5)
[23] = target: MAP3K6 (human) (UniProt O95382)
[24] = target: MATK (human) (UniProt P42679)
[25] = target: NEK11 (human) (UniProt Q8NG66)
[26] = target: NEK4 (human) (UniProt P51957)
[27] = target: OXSR1 (human) (UniProt O95747)
Sequence of OXSR1 (human) (O95747 whole entry, looked up): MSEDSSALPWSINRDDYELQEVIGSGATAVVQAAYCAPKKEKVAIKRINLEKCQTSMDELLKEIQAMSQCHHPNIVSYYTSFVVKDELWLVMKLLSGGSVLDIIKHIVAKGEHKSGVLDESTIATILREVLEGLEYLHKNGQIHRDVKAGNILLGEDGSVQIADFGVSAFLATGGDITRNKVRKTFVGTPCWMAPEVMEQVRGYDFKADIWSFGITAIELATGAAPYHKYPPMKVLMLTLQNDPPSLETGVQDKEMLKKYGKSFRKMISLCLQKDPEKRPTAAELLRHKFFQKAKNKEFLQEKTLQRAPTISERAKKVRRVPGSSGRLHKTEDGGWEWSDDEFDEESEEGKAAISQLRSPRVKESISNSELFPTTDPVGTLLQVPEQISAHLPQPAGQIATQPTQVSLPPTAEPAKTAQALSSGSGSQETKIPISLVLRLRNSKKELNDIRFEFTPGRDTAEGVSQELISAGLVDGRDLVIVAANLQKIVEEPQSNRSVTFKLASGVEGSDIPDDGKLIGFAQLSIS

[28] = target: PIK3C2G (human) (UniProt O75747)
[29] = target: PIP4K2C (human) (UniProt Q8TBX8)
[30] = target: PIP5K1C (human) (UniProt O60331)
Sequence of PIP5K1C (human) (O60331 whole entry, looked up): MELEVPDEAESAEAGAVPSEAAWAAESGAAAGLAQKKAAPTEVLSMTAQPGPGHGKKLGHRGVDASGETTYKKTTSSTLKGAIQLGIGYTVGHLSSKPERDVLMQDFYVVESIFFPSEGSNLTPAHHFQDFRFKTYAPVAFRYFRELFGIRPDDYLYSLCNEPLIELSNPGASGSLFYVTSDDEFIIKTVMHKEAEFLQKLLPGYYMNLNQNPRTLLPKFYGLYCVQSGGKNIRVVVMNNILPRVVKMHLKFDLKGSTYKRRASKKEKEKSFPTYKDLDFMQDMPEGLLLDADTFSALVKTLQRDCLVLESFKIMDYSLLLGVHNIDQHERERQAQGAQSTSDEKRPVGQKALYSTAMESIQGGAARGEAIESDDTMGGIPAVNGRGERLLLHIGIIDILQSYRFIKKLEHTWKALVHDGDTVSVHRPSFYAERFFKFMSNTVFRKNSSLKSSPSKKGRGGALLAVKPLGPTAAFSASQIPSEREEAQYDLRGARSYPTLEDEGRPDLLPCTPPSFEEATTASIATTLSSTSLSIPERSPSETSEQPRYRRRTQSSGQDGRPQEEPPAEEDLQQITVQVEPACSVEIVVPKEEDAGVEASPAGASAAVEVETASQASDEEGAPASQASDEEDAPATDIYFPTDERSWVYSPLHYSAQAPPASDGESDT

[31] = target: PKN3 (M.tuberculosis) (UniProt Q6P5Z2)
[32] = target: PRPF4B (human) (UniProt Q13523)
Sequence of PRPF4B (human) (Q13523 whole entry, looked up): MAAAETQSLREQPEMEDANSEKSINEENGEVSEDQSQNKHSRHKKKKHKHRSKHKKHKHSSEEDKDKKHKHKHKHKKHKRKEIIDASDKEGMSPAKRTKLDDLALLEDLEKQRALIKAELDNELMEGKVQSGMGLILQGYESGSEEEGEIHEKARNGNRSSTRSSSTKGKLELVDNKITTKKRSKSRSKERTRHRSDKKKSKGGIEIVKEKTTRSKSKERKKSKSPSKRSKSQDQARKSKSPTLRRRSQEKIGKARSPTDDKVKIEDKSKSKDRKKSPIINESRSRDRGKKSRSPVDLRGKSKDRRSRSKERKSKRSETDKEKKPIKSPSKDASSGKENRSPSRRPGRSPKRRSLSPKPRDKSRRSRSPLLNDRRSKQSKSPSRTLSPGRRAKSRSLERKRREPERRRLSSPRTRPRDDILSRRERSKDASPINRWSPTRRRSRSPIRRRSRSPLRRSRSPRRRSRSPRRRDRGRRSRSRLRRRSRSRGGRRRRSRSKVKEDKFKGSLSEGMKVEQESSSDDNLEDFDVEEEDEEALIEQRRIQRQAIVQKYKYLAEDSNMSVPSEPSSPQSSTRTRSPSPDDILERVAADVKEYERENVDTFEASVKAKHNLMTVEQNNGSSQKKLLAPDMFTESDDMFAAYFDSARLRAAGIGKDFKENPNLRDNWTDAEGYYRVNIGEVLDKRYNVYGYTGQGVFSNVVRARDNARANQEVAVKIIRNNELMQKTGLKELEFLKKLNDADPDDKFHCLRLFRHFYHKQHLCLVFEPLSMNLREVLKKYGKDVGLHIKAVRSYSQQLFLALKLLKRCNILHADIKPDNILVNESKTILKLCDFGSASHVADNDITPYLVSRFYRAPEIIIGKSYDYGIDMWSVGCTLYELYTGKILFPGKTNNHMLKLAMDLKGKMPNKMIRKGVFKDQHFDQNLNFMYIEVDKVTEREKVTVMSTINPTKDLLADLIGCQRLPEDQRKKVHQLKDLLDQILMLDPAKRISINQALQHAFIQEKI

[33] = target: SIK3 (human) (UniProt Q9Y2K2)
[34] = target: SNRK (human) (UniProt Q9NRH2)
[35] = target: STK38 (human) (UniProt Q15208)
Sequence of STK38 (human) (Q15208 whole entry, looked up): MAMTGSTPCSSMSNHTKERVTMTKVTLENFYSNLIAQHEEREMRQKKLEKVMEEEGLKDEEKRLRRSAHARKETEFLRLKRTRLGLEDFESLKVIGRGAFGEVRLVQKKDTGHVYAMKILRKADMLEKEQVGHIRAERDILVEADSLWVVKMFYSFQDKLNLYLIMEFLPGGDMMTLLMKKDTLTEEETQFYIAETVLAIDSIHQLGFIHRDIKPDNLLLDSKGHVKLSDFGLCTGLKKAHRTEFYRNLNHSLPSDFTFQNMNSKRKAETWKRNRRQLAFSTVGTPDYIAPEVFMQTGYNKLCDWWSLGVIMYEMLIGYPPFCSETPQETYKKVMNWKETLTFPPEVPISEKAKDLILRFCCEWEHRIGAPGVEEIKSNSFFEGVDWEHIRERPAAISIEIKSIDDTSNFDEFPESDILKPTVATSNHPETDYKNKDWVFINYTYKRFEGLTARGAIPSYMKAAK

[36] = target: TBK1 (human) (UniProt Q9UHD2)
[37] = target: TIE1 (human) (UniProt P35590)
[38] = target: TRPM6 (human) (UniProt Q9BX84)
[39] = target: PIK3CA (human) (UniProt P42336)
[40] = system: PIK3CA (human), P42336 [I800L]

Sequence of DDR1 (human) (Q08345 whole entry, looked up): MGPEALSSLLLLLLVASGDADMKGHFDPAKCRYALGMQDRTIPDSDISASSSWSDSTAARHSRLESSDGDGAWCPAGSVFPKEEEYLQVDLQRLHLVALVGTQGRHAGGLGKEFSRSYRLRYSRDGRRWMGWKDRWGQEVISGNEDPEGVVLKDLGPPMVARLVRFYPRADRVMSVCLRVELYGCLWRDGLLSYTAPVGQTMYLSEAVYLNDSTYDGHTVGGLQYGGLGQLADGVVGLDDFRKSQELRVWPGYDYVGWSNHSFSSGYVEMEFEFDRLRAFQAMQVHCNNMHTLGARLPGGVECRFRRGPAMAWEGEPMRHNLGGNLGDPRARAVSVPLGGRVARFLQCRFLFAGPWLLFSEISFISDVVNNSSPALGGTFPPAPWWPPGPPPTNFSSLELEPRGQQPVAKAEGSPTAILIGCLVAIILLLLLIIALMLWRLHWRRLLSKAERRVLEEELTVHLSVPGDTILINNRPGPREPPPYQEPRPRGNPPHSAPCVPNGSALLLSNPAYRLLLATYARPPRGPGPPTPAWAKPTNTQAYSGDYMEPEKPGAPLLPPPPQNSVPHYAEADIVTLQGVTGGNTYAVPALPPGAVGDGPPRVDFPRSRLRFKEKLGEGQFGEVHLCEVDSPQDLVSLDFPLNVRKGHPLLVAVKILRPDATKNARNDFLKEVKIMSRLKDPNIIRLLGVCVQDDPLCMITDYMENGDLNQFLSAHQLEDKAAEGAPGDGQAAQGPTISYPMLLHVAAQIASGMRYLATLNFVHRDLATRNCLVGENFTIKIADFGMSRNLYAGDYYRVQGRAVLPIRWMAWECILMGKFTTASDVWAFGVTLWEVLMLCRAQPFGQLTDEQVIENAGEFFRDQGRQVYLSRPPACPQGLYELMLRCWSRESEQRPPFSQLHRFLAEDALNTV

Structure (SMILES)	kinase still bound, per cent of control [1]	kinase still bound, per cent of control [2]	kinase still bound, per cent of control [3]	kinase still bound, per cent of control [4]	kinase still bound, per cent of control [5]	kinase still bound, per cent of control [6]	kinase still bound, per cent of control [7]	kinase still bound, per cent of control [8]	kinase still bound, per cent of control [14]	kinase still bound, per cent of control [15]	kinase still bound, per cent of control [16]	kinase still bound, per cent of control [17]	kinase still bound, per cent of control [18]	kinase still bound, per cent of control [19]	kinase still bound, per cent of control [20]	kinase still bound, per cent of control [21]	kinase still bound, per cent of control [22]	kinase still bound, per cent of control [23]	kinase still bound, per cent of control [24]	kinase still bound, per cent of control [25]	further results
Cc1cc([C@@H](C)Nc2ccccc2C(=O)O)c2nc(N3CCOCC3)cc(=O)n2c1	88%	100%	90%	98%	63%	100%	100%	89%	100%	57%	89%	91%	67%	90%	90%	87%	100%	95%	96%	100%	kinase still bound, per cent of control [9]: 96%; kinase still bound, per cent of control [10]: 100%; kinase still bound, per cent of control [11]: 98%; kinase still bound, per cent of control [12]: 100%; kinase still bound, per cent of control [13]: 100%; kinase still bound, per cent of control [26]: 61%; kinase still bound, per cent of control [27]: 100%; kinase still bound, per cent of control [28]: 7%; kinase still bound, per cent of control [29]: 58%; kinase still bound, per cent of control [30]: 63%; kinase still bound, per cent of control [31]: 98%; kinase still bound, per cent of control [32]: 71%; kinase still bound, per cent of control [33]: 95%; kinase still bound, per cent of control [34]: 89%; kinase still bound, per cent of control [35]: 100%; kinase still bound, per cent of control [36]: 100%; kinase still bound, per cent of control [37]: 100%; kinase still bound, per cent of control [38]: 100%
C[C@@H](Oc1cc(-n2cnc3ccc(CN4CCN(C)CC4)cc32)sc1C(N)=O)c1ccccc1C(F)(F)F	26%	70%	100%	100%	91%	100%	34%	54%	50%	33%	37%	37%	100%	80%	3.7%	24%	100%	75%	52%	100%	kinase still bound, per cent of control [9]: 87%; kinase still bound, per cent of control [10]: 100%; kinase still bound, per cent of control [11]: 100%; kinase still bound, per cent of control [12]: 100%; kinase still bound, per cent of control [13]: 97%; kinase still bound, per cent of control [26]: 69%; kinase still bound, per cent of control [27]: 98%; kinase still bound, per cent of control [28]: 40%; kinase still bound, per cent of control [39]: 52%; kinase still bound, per cent of control [40]: 24%; kinase still bound, per cent of control [29]: 62%; kinase still bound, per cent of control [30]: 18%; kinase still bound, per cent of control [31]: 27%; kinase still bound, per cent of control [32]: 39%; kinase still bound, per cent of control [33]: 69%; kinase still bound, per cent of control [34]: 100%; kinase still bound, per cent of control [35]: 71%; kinase still bound, per cent of control [36]: 84%; kinase still bound, per cent of control [38]: 100%
N#Cc1c(NC(=O)c2cccc3ccccc23)sc2c1CCCC2	87%	84%	82%	100%	100%	71%	100%	100%	100%	88%	43%	78%	56%	100%	59%	100%	100%	93%	100%	100%	kinase still bound, per cent of control [26]: 76%; kinase still bound, per cent of control [27]: 100%; kinase still bound, per cent of control [28]: 87%; kinase still bound, per cent of control [39]: 99%; kinase still bound, per cent of control [40]: 98%; kinase still bound, per cent of control [29]: 100%; kinase still bound, per cent of control [30]: 100%; kinase still bound, per cent of control [31]: 100%; kinase still bound, per cent of control [32]: 100%; kinase still bound, per cent of control [33]: 65%; kinase still bound, per cent of control [34]: 100%; kinase still bound, per cent of control [35]: 100%; kinase still bound, per cent of control [36]: 88%; kinase still bound, per cent of control [37]: 95%; kinase still bound, per cent of control [38]: 100%
O=C(NOC[C@H](O)CO)c1ccc(F)c(F)c1Nc1ccc(I)cc1F	84%	84%	98%	100%	100%	50%	100%	95%	100%	100%	49%	90%	100%	100%	54%	100%	100%	95%	100%	91%	kinase still bound, per cent of control [13]: 59%; kinase still bound, per cent of control [26]: 78%; kinase still bound, per cent of control [27]: 100%; kinase still bound, per cent of control [28]: 48%; kinase still bound, per cent of control [39]: 56%; kinase still bound, per cent of control [40]: 33%; kinase still bound, per cent of control [29]: 100%; kinase still bound, per cent of control [30]: 100%; kinase still bound, per cent of control [31]: 91%; kinase still bound, per cent of control [32]: 77%; kinase still bound, per cent of control [33]: 52%; kinase still bound, per cent of control [34]: 100%; kinase still bound, per cent of control [35]: 100%; kinase still bound, per cent of control [36]: 85%; kinase still bound, per cent of control [37]: 54%; kinase still bound, per cent of control [38]: 100%
